Data on two molecules can be found in patent US20250186396A1, “COMPOSITIONS AND METHODS FOR THE TREATMENT OF GLIOBLASTOMA WITH A DUAL TARGETING ANTI-TUMOR COMPOSITION” (Northwestern University, priority 2023, published 2025).

Format in all cases: in vivo, C57BL/6 mice
One assay relates to CT2A tumors. Put plainly: Immunofluorescence staining of CT2A tumors. To be noted: for intratumoral CD4+ T cells / intratumoral CD8+ T cells / intratumoral activated CD8+ (CD8+CD69+) T cells: CT2A model, BAPN 2 g/L in drinking water from day 4, SR9009 100 mg/kg i.p. daily for 10 days from day 7; for CX3CR1+ microglia in tumors / F4/80+ macrophages in tumors: CT2A tumors vs control, BAPN 2 g/L drinking water or SR9009 100 mg/kg i.p. daily 10 days. Here is the method:
(§1) Mice and Intracranial Xenograft Tumor Models. Female C57BL/6 mice at 3 to 4 weeks of age were purchased from the Jackson Laboratory (#0000664). All animals were grouped by 5 mice per cage and maintained in IVC System (San Diego, CA) for a week before the experiment. All animal experiments were performed with the approval of the Institutional Animal Care and Use Committee (IACUC) at Northwestern University. The intracranial xenograft tumor models were established previously. In brief, mice were anesthetized by isoflurane through IMPAC6 Anesthesia System. Then a dental drill was used to open a small hole in the skull of mice 1.2 mm anterior and 3.0 mm lateral to the bregma. Mice were placed into the stereotactic apparatus, and 5 μL 005 GSC, CT2A, or GL261 cells in FBS-free culture medium were injected into the right caudate nucleus 3 mm below the surface of the brain using a 10 μL Hamilton syringe with an unbeveled 30-gauge needle. The incision was closed using Vetbond glue. Meloxicam (20 mg/kg, daily) was subcutaneously injected for pain relief for 3 days after surgery. Mice received the treatment with BAPN (2 g/L in drinking water) on day 4, SR9009 (100 mg/kg body weight, i.p.) daily for 10 days beginning at day 7 post-orthotopic injection, anti-PD1 (10 mg/kg body weight, i.p.) on days 11, 14, and 17 post-orthotopic injection, and/or clodronate liposomes (200 μL, once every 3 days) starting at day 4 post-orthotopic injection. Mice with neurological deficits or moribund appearance were sacrificed according to the IACUC protocol. At the end of the experiment, the brains of mice were collected, either fixed in 4% paraformaldehyde (PFA) (ThermoFisher Scientific, #J61899.AK) after transcardiac perfusion with PBS for optimal cutting temperature (OCT)-cryosectioning or processed using the percoll density gradient cell separation method to isolate tumor-derived immune cells for flow cytometry analysis.
Immunofluorescence. Immunofluorescence was performed using a standard protocol that was previously established. In brief, slides from cryosections were kept at room temperature for 30 minutes and fixed in 10% PFA for 30 minutes prior to permeabilization. Then, 0.25% Triton X-100 in PBS was added for 30 minutes at room temperature to permeabilize the cell membrane. After three times PBS washing, sections were blocked by 5% goat serum for 30 minutes. Specimens were incubated with primary antibody for 1 hour at room temperature and then overnight at 4° C. Then, the unbound primary antibodies were washed out by three times PBS for 3 minutes each and corresponding secondary antibody cocktails were prepared and added to the sections for 1 hour incubation. Cell nuclear was counterstained with DAPI/anti-fade mounting medium (Vector Laboratories, #H-1200-10). Immunofluorescence images were captured using Nikon AX/AX R Confocal Microscope System with an apo 60 1.40 Oil 160/0.17 objective in the Center for Advanced Microscopy (CAM) at Northwestern University. The relative intensity of the protein signal was determined by Image J. For one slide, 3-5 fields of images were captured randomly, and the intensity of the protein signal was determined by Image J. The average quantified value of these 3-5 fields was represented as the protein signal intensity of one sample and presented as the individual point in the bar graph. Antibodies specific to CD8 (Invitrogen, #PA5-81344), CD69 (Santa Cruz Biotechnology, #sc-373799), CX3CR1 (Invitrogen, #702321), F4/80 (Cell Signaling Technology, #30325S), OLFML3 (Invitrogen, #702321), Ki67 (Cell Signaling Technology, #9129S), and CC3 (Cell Signaling Technology, #9661S) were used.

A further assay has as its system 005 GSCs. Put plainly: Survival of mice intracranially implanted with 005 GSCs. To be noted: 005 GSCs 2×10^5 cells/mouse; BAPN 2 g/L drinking water from day 4; SR9009 100 mg/kg i.p. 10 days from day 7; anti-PD1 10 mg/kg i.p. days 11, 14, 17; radiation 2.5 Gy 4 days from day 7. Here is the method:
Mice and Intracranial Xenograft Tumor Models. Female C57BL/6 mice at 3 to 4 weeks of age were purchased from the Jackson Laboratory (#0000664). All animals were grouped by 5 mice per cage and maintained in IVC System (San Diego, CA) for a week before the experiment. All animal experiments were performed with the approval of the Institutional Animal Care and Use Committee (IACUC) at Northwestern University. The intracranial xenograft tumor models were established previously. In brief, mice were anesthetized by isoflurane through IMPAC6 Anesthesia System. Then a dental drill was used to open a small hole in the skull of mice 1.2 mm anterior and 3.0 mm lateral to the bregma. Mice were placed into the stereotactic apparatus, and 5 μL 005 GSC, CT2A, or GL261 cells in FBS-free culture medium were injected into the right caudate nucleus 3 mm below the surface of the brain using a 10 μL Hamilton syringe with an unbeveled 30-gauge needle. The incision was closed using Vetbond glue. Meloxicam (20 mg/kg, daily) was subcutaneously injected for pain relief for 3 days after surgery. […]
Statistical analysis. […] The survival analysis for animal models was determined by conducting Log-rank (Mantel-Cox) test. […]

Another assay concerns 005 GSC tumors. Nature of the assay: Flow cytometry of tumor-derived immune cells, 005 GSC tumors. Here is the method:
as §1
Tumor-derived immune cells isolation. Mice with neurologic deficits or moribund appearance were sacrificed to harvest their brains. Immune cells in the brain tumors were isolated using the percoll density gradient cell separation method as previously described. In brief, after perfusion with PBS, brains were homogenized on ice with pre-cold 10 mL HBSS. Then cells were spun down at 1,500 rpm for 10 minutes at 4° C., and were resuspended in 30% Percoll (GE Healthcare, #17-0891-01). The solution was gently laid on top of the 70% Percoll and centrifuged at 1,200 g for 30 minutes at 4° C. with accelerator 7 and breaker 0. After removing myelin and debris, the interphase was collected and centrifuged at 1,500 rpm for 10 minutes at 4° C. […]
Flow cytometry. […] Samples were read through the BD FACSymphony or BD LSRFortessa flow cytometer and analyzed in FlowJo v10.8.1.
On the technique in general: A flow cytometer gives signals particle by particle.

On to `N#CCCN` [BAPN, β-aminopropionitrile], for which, in the assay with CT2A tumors, the “intratumoral CD4+ T cells” value was “increased”, the “intratumoral CD8+ T cells” value is listed as “increased”, the “intratumoral activated CD8+ (CD8+CD69+) T cells” value is reported as “increased” and the “CX3CR1+ microglia in tumors” value is “higher”. Besides, the “F4/80+ macrophages in tumors” value in the assay on CT2A tumors is on record as “lower”. Also, in the assay with 005 GSCs, the survival result was “extended the survival”. Further, in the assay on 005 GSC tumors, the “CD45+CD3+CD8+CD69+ activated T cells” value is given as “Increases” and the “CD45+CD3+CD8+IFN-γ+ activated T cells” value was “Increases”.

Turning to `CCOC(=O)N1CCC(CN(Cc2ccc(Cl)cc2)Cc2ccc([N+](=O)[O-])s2)C1` (stereo not drawn) [SR9009], in the assay on CT2A tumors, the “intratumoral CD4+ T cells” value was “increased”, the “intratumoral CD8+ T cells” value is “increased”, the “intratumoral activated CD8+ (CD8+CD69+) T cells” value is recorded as “increased” and the “CX3CR1+ microglia in tumors” value is listed as “reduced”. Also, the “F4/80+ macrophages in tumors” value in the assay on CT2A tumors is on record as “did not affect”. In addition, in the assay on 005 GSC tumors, the “CD45+CD3+CD8+CD69+ activated T cells” value is “Increases” and the “CD45+CD3+CD8+IFN-γ+ activated T cells” value is reported as “Increases”.
